Structures are written as SMILES.

In the assay the target is human MRGPRD (Homo sapiens, UniProt Q8TDS7). Description: MRGPRD antagonist activity, IP-One HTRF assay in CHO cells stably expressing human MRGPRD (versus 100 μM β-Alanine agonist). The assay is classed as cell-based. The method in brief: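 CHO cells stably expressing human MRGPRD, plated overnight at 37 °C, were treated with antagonist plus agonist in Tris-HCl/NaCl/LiCl buffer pH 8, incubated 1 h at 37 °C then 1 h at room temperature. IP-1 accumulation read by HTRF; IC50 and percent antagonism of maximum efficacy averaged, SEM reported.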
Chain of human MRGPRD (Q8TDS7 whole entry): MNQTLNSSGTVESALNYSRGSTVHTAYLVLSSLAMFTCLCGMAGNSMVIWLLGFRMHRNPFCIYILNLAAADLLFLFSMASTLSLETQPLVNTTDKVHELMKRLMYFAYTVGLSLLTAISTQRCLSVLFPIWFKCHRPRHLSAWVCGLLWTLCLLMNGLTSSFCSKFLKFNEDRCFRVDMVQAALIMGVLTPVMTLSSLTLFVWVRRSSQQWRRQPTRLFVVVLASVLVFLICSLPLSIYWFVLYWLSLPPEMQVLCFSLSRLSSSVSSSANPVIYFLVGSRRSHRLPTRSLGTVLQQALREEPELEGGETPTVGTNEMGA
Compound `Cc1[nH]nc(-c2ccc(-n3nnc(C(=O)Nc4ccncc4)c3C3CC3)cc2)c1Cl` [Compound 7-128] registered an IC50 of 500 to 1000 nM. The compound `O=C(Nc1ccncc1)c1nnn(-c2ccc(-c3ccccc3F)cc2)c1C1CC1` [Compound 7-129] gave an IC50 of 500 to 1000 nM. `O=C(Nc1ccncc1)c1nnn(-c2ccc(-c3n[nH]cc3F)cc2)c1C1CC1` [Compound 7-130]: the IC50 was 500 to 1000 nM. `CC(C)Oc1ccc(-c2ccc(-n3nnc(C(=O)Nc4ccncc4)c3C3CC3)cc2)cc1` [Compound 7-131] gave an IC50 of 500 to 1000 nM. With `Cc1cc(-c2ccc(-n3nnc(C(=O)Nc4ccncc4)c3C3CC3)cc2)n(C)n1` [Compound 7-132], the IC50 fell in the range of 500 to 1000 nM. `Cc1nn(C)c(CO)c1-c1ccc(-n2nnc(C(=O)Nc3ccncc3)c2C2CC2)cc1` [Compound 7-133] yielded an IC50 of 500 to 1000 nM.

In the case of `CC(=O)c1ccccc1-c1ccc(-n2nnc(C(=O)Nc3ccncc3)c2C2CC2)cc1` [Compound 7-134], the IC50 is 500 to 1000 nM. Compound `NS(=O)(=O)c1cccc(-c2ccc(-n3nnc(C(=O)Nc4ccncc4)c3C3CC3)cc2)c1` [Compound 7-135] displayed a half-inhibitory concentration (IC50) of 500 to 1000 nM. The compound `C#Cc1cccc(-c2ccc(-n3nnc(C(=O)Nc4ccncc4)c3C3CC3)cc2)c1` [Compound 7-136] registered an IC50 of 500 to 1000 nM.

The compound `O=C(Nc1ccncc1)c1nnn(-c2ccc(-c3cnn(C(F)F)c3)cc2)c1C1CC1` [Compound 7-137] had an IC50 of 500 to 1000 nM.

Take `COc1cc(-c2ccc(-n3nnc(C(=O)Nc4ccncc4)c3C3CC3)cc2)n[nH]1` [Compound 7-138]: the IC50 was in the range of 500 to 1000 nM. In turn, `N#Cc1cccc(-c2ccc(-n3nnc(C(=O)Nc4ccncc4)c3C3CC3)cc2)c1` [Compound 7-139] displayed an IC50 of 500 to 1000 nM. `Cc1csc(-c2ccc(-n3nnc(C(=O)Nc4ccncc4)c3C3CC3)cc2)n1` [Compound 7-140]: the IC50 is 500 to 1000 nM.

Regarding `NS(=O)(=O)c1ccc(-c2ccc(-n3nnc(C(=O)Nc4ccncc4)c3C3CC3)cc2)cc1` [Compound 7-141], the IC50 fell in the range of 500 to 1000 nM.

The compound `CC(C)(C)n1cc(-c2ccc(-n3nnc(C(=O)Nc4ccncc4)c3C3CC3)cc2)cn1` [Compound 7-142] yielded an IC50 of 500 to 1000 nM. Turning to `N#Cc1c[nH]nc1-c1ccc(-n2nnc(C(=O)Nc3ccncc3)c2C2CC2)cc1` [Compound 7-143], the IC50 fell in the range of 500 to 1000 nM.

Compound `Cn1ncc(-c2ccc(-n3nnc(C(=O)Nc4ccncc4)c3C3CC3)cc2)c1-c1ccccc1` [Compound 7-144] returned an IC50 of 500 to 1000 nM.

Take `O=C(Nc1ccncc1)c1nnn(-c2ccc(-c3ccccc3Cl)cc2)c1C1CC1` [Compound 7-145]: the IC50 was 500 to 1000 nM.

`CN(C)Cc1cccc(-c2ccc(-n3nnc(C(=O)Nc4ccncc4)c3C3CC3)cc2)c1` [Compound 7-146] showed a 50% inhibitory concentration (IC50) of 500 to 1000 nM.

The compound `CC(=O)c1ccc(-c2ccc(-n3nnc(C(=O)Nc4ccncc4)c3C3CC3)cc2)s1` [Compound 7-147] showed a concentration for half-maximal inhibition (IC50) of 500 to 1000 nM.

In turn, `CC(C)Oc1cccc(-c2ccc(-n3nnc(C(=O)Nc4ccncc4)c3C3CC3)cc2)c1` [Compound 7-148] returned an IC50 of 500 to 1000 nM. The compound `O=C(Nc1ccncc1)c1nnn(-c2ccc(-c3ccc(CC4CC4)cc3)cc2)c1C1CC1` [Compound 7-149] registered an IC50 of 500 to 1000 nM. For `C#Cc1ccc(-c2ccc(-n3nnc(C(=O)Nc4ccncc4)c3C3CC3)cc2)cc1` [Compound 7-150], the IC50 was in the range of 500 to 1000 nM. In turn, `O=C(Nc1ccncc1)c1nnn(-c2ccc(-c3ccccc3CO)cc2)c1C1CC1` [Compound 7-151] registered a half-inhibitory concentration (IC50) of 500 to 1000 nM. For the compound `O=C(Nc1ccncc1)c1nnn(-c2ccc(-c3cccs3)cc2)c1C1CC1` [Compound 7-152], the half-maximal inhibitory concentration (IC50) lay within 500 to 1000 nM. The result for `COc1cccc(-c2ccc(-n3nnc(C(=O)Nc4ccncc4)c3C3CC3)cc2)c1` [Compound 7-153] reads 500 to 1000 nM.

`N#CCc1ccccc1-c1ccc(-n2nnc(C(=O)Nc3ccncc3)c2C2CC2)cc1` [Compound 7-154] displayed an IC50 of 500 to 1000 nM. `O=C(Nc1ccncc1)c1nnn(-c2ccc(-c3cccc(C(F)(F)F)c3)cc2)c1C1CC1` [Compound 7-155] showed an IC50 of 500 to 1000 nM.

Take `O=C(Nc1ccncc1)c1nnn(-c2ccc(-c3ccnn3-c3ccccc3)cc2)c1C1CC1` [Compound 7-156]: the IC50 fell in the range of 500 to 1000 nM. Regarding `CC(C)n1nc(C(F)(F)F)cc1-c1ccc(-n2nnc(C(=O)Nc3ccncc3)c2C2CC2)cc1` [Compound 7-157], the IC50 lay within 500 to 1000 nM. As for `COCn1cc(-c2ccc(-n3nnc(C(=O)Nc4ccncc4)c3C3CC3)cc2)cn1` [Compound 7-158], the IC50 is 500 to 1000 nM. For the compound `CC(C)Oc1ccccc1-c1ccc(-n2nnc(C(=O)Nc3ccncc3)c2C2CC2)cc1` [Compound 7-160], the IC50 lay within 500 to 1000 nM. The compound `O=C(Nc1ccncc1)c1nnn(-c2ccc(-c3ccccc3O)cc2)c1C1CC1` [Compound 7-161] showed an IC50 of 500 to 1000 nM. The value for `O=C(Nc1ccncc1)c1nnn(-c2ccc(-c3cccc(OC(F)(F)F)c3)cc2)c1C1CC1` [Compound 7-162] was 1000 to 3000 nM; that for `Cn1ccnc1-c1ccc(-n2nnc(C(=O)Nc3ccncc3)c2C2CC2)cc1` [Compound 7-163] was 1000 to 3000 nM. The compound `Cn1nc(-c2ccc(-n3nnc(C(=O)Nc4ccncc4)c3C3CC3)cc2)c2ccccc21` [Compound 7-164] came in with an IC50 of 1000 to 3000 nM. The result for `O=C(Nc1ccncc1)c1nnn(-c2ccc(-c3n[nH]c4cnccc34)cc2)c1C1CC1` [Compound 7-165] reads 1000 to 3000 nM. The value for `O=C(Nc1ccncc1)c1nnn(-c2ccc(-c3cccc(C4CCCCC4)c3)cc2)c1C1CC1` [Compound 7-166] was 1000 to 3000 nM; that for `COCc1cccc(-c2ccc(-n3nnc(C(=O)Nc4ccncc4)c3C3CC3)cc2)c1` [Compound 7-167] was 1000 to 3000 nM. `O=C(Nc1ccncc1)c1nnn(-c2ccc(-c3ccnn3CC3CC3)cc2)c1C1CC1` [Compound 7-168]: the IC50 is 1000 to 3000 nM. As for `O=C(Nc1ccncc1)c1nnn(-c2ccc(-c3ccccc3C(F)(F)F)cc2)c1C1CC1` [Compound 7-169], the IC50 fell in the range of 1000 to 3000 nM. `O=C(Nc1ccncc1)c1nnn(-c2ccc(-c3cccc(O)c3)cc2)c1C1CC1` [Compound 7-170] registered an IC50 of 1000 to 3000 nM.

The compound `O=C(Nc1ccncc1)c1nnn(-c2ccc(-c3cccc(CO)c3)cc2)c1C1CC1` [Compound 7-171] returned an IC50 of 1000 to 3000 nM. As for `CN(C)c1ccccc1-c1ccc(-n2nnc(C(=O)Nc3ccncc3)c2C2CC2)cc1` [Compound 7-172], the IC50 lay within 1000 to 3000 nM. `O=C(Nc1ccncc1)c1nnn(-c2ccc(-c3cn[nH]c3)cc2)c1C1CC1` [Compound 7-173] showed an IC50 of 1000 to 3000 nM.

As for `CC(=O)c1ccc(-c2ccc(-n3nnc(C(=O)Nc4ccncc4)c3C3CC3)cc2)cc1C` [Compound 7-174], the 50% inhibitory concentration (IC50) is 1000 to 3000 nM.

`CC(C)n1cc(-c2ccc(-n3nnc(C(=O)Nc4ccncc4)c3C3CC3)cc2)cn1` [Compound 7-175] showed a half-maximal inhibitory concentration (IC50) of 1000 to 3000 nM.

In turn, `O=C(Nc1ccncc1)c1nnn(-c2ccc(-c3cscn3)cc2)c1C1CC1` [Compound 7-176] came in with an IC50 of 1000 to 3000 nM. In turn, `O=C(Nc1ccncc1)c1nnn(-c2ccc(-c3nccs3)cc2)c1C1CC1` [Compound 7-177] showed an IC50 of 1000 to 3000 nM. The result for `O=C(Nc1ccncc1)c1nnn(-c2ccc(-c3ccncc3)cc2)c1C1CC1` [Compound 7-178] reads 1000 to 3000 nM; that for `O=C(Nc1ccncc1)c1nnn(-c2ccc(-c3cccnc3)cc2)c1C1CC1` [Compound 7-179], 1000 to 3000 nM. The result for `N#Cc1ccccc1-c1ccc(-n2nnc(C(=O)Nc3ccncc3)c2C2CC2)cc1` [Compound 7-180] reads 1000 to 3000 nM; that for `Cc1cscc1-c1ccc(-n2nnc(C(=O)Nc3ccncc3)c2C2CC2)cc1` [Compound 7-181], 1000 to 3000 nM; that for `Cc1ccc(-c2ccc(-n3nnc(C(=O)Nc4ccncc4)c3C3CC3)cc2)s1` [Compound 7-182], 1000 to 3000 nM. Consider `O=C(Nc1ccncc1)c1nnn(-c2ccc(-c3cc(C(F)(F)F)[nH]n3)cc2)c1C1CC1` [Compound 7-183], for which the IC50 is 1000 to 3000 nM.

For `Cn1cc(C#N)c(-c2ccc(-n3nnc(C(=O)Nc4ccncc4)c3C3CC3)cc2)n1` [Compound 7-184], the IC50 fell in the range of 1000 to 3000 nM. The value for `COc1ccc(-c2ccc(-n3nnc(C(=O)Nc4ccncc4)c3C3CC3)cc2)cc1F` [Compound 7-185] was 1000 to 3000 nM. The result for `O=C(Nc1ccncc1)c1nnn(-c2ccc(-c3ccccc3OC(F)(F)F)cc2)c1C1CC1` [Compound 7-186] reads 1000 to 3000 nM. `O=C(Nc1ccncc1)c1nnn(-c2ccc(-c3cncs3)cc2)c1C1CC1` [Compound 7-187] displayed an IC50 of 1000 to 3000 nM. With `Cn1ncc(C#N)c1-c1ccc(-n2nnc(C(=O)Nc3ccncc3)c2C2CC2)cc1` [Compound 7-188], the IC50 lay in the range of 1000 to 3000 nM. The compound `CCn1cc(-c2ccc(-n3nnc(C(=O)Nc4ccncc4)c3C3CC3)cc2)c(C)n1` [Compound 7-189] registered an IC50 of 1000 to 3000 nM. The compound `O=C(Nc1ccncc1)c1nnn(-c2ccc(-c3cccc(F)c3)cc2)c1C1CC1` [Compound 7-190] yielded an IC50 of 1000 to 3000 nM. As to `Cc1cc(-c2ccc(-n3nnc(C(=O)Nc4ccncc4)c3C3CC3)cc2)sn1` [Compound 7-191], the IC50 lay in the range of 1000 to 3000 nM. On to `Cn1ncc(CO)c1-c1ccc(-n2nnc(C(=O)Nc3ccncc3)c2C2CC2)cc1` [Compound 7-192], for which the half-maximal inhibitory concentration (IC50) is 1000 to 3000 nM. For the compound `Cc1cnn(C2CCCCO2)c1-c1ccc(-n2nnc(C(=O)Nc3ccncc3)c2C2CC2)cc1` (stereo not shown) [Compound 7-193], the IC50 was 1000 to 3000 nM. Consider `COc1ncc(-c2ccc(-n3nnc(C(=O)Nc4ccncc4)c3C3CC3)cc2)cn1` [Compound 7-194], for which the IC50 lay in the range of 1000 to 3000 nM. As to `O=C(Nc1ccncc1)c1nnn(-c2ccc(-c3ccc(OC(F)(F)F)cc3)cc2)c1C1CC1` [Compound 7-195], the concentration for half-maximal inhibition (IC50) lay within 1000 to 3000 nM. Consider `O=C(Nc1ccncc1)c1nnn(-c2ccc(-c3ccc4[nH]ccc4c3)cc2)c1C1CC1` [Compound 7-196], for which the IC50 lay in the range of 1000 to 3000 nM. The result for `NS(=O)(=O)c1ccccc1-c1ccc(-n2nnc(C(=O)Nc3ccncc3)c2C2CC2)cc1` [Compound 7-197] reads 1000 to 3000 nM; that for `Cc1cc(-c2ccc(-n3nnc(C(=O)Nc4ccncc4)c3C3CC3)cc2)on1` [Compound 7-198], 1000 to 3000 nM.

The values above are taken from patent publication US20260001871A1, “TRIAZOLE DERIVATIVES AS MODULATORS OF MAS-RELATED G-PROTEIN RECEPTOR D” (ESCIENT PHARMACEUTICALS, INC., priority 2022, published 2026).
